Test results from patent publication US4788206A, “Pentadieneamides” (Hoffmann-La Roche Inc., priority 1987, dated 1988).

What was measured:
[1] = system: PAF-Induced Bronchoconstriction; assay: PAF Induced Bronchoconstriction Assay; format: in vivo, guinea pig; details: for Percent Inhib. of PAF-Induced Bronchoconstriction, mg/Kg i.v.: i.v. (dose not given), 1 minute pretreatment, PAF 1.0 μg/kg i.v.; for inhibition in vivo at 50 mg/kg: Cavia porcellus, po, 2-hour pretreatment, read-out: Percent Inhib. of PAF-Induced Bronchoconstriction, 50 mg/Kg p.o.; for inhibition in vivo at 50 mg/kg / Percent Inhib. of PAF-Induced Bronchoconstriction, 50 mg/Kg p.o. (8 hr): 50 mg/Kg p.o.
Procedure: PAF Induced Bronchoconstriction Assay
Male animals (Hartlet Strain 400-500 g) were anesthetized with urethane (2 g/kg. i.p.). Each animals' trachea was cannulated and the guinea pigs were repirated using a Harvard small animal rodent respirator (3.0 cc stroke volume, 40 breaths per min.). Tracheal pressure was recorded from a cannula inserted in the trachea and connected to a Statham Pressure Transducer.
The jugular vein was cannulated for administering compounds. Spontaneous breathing was arrested with succinylcholine (1.2 mg/kg. i.v.) administered 2 minutes prior to intravenous injection of platelet activating factor (PAF).
For, the intravenous testing, the guinea pig is given a 5-minute pretreatment with propranolol at a dose of 0.1 mg/kg intravenously. The test compound is administered with a 1 minute pretreatment prior to intravenous challenge with PAF. The animal is than challenged with a 1.0 μg/kg intravenous dose of PAF and the change is tracheal pressure is measured.
For the oral testing, the procedure includes a 2-hour pretreatment period with the test compound administered through an oral gavage tube. Propranolol or succinylcholine and PAF are administered intravenously, and the change in tracheal pressure measured.
The change is tracheal pressure is determined by subtracting the steady state baseline achieved after administration of succinylcholine from the peak bronchoconstriction seen after challenge with PAF. The mean is calculated for each test compound and compared to the mean of the control animals to give the percent inhibition of bronchoconstriction. The standard error is calcuated as the standard error of the mean.

[2] = biological target: T1, PAF Binding, dog platelets (Canis lupus familiaris, UniProt A0A8I3NSH0); assay: PAF Binding Assay (inhibition of 3H-PAF binding to washed dog platelets); details: dog platelets, 3H-PAF, 10 minutes at room temperature; read-out: Inhib of PAF Binding IC50
T1 construct: Washed platelets were prepared by resuspending the platelet pellet once with PBS containing 1 mM EDTA; from tissue; host or cells: washed platelets from dog blood
T1 sequence (A0A8I3NSH0 1-343): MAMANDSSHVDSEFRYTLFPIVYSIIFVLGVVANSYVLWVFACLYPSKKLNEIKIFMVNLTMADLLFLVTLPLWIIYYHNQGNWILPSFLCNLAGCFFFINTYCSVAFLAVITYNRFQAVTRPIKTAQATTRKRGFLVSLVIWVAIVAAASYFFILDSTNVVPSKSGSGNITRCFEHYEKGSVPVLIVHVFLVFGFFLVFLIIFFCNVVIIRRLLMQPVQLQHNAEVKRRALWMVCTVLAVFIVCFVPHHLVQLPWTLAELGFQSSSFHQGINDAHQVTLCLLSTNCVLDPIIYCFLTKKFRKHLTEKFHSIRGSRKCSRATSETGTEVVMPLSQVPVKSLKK
Procedure: The binding assay was done in 400 μl polyethylene microcentrifuge tubes (Beckman) containing 50 μl of an oil mixture of 2 parts Siliconol AR200 (Serva): 1 part Silicone Fluid (Arthur H. Thomas). Buffer, standards, or analogs (150 μl total volume) were added to the tubes. Radiolabelled ^3 H-PAF (50 μl) was then added to the tubes. The reaction was started by the addition of 50 μl of dog platelets (2×10^7 platelets). The tubes were capped, inverted several times to mix, and incubated for 10 minutes at room temperature. The platelets were separated from the incubation mixture by centrifuging 1 minute in a Beckman Microfuge B centrifuge. The tip of the microfuge tube was cut off, and the platelets were washed out of the tip with 200 μl of 50% methanol (Burdick and Jackson). Aquasol (NEN, 10 ml) was added and the radioactivity in the samples was determined using an LS 8100 Beckman liquid scintillation counter linked to a Techtran tape recorder. Data was processed through an in-house computer system. Alternatively, radioactivity was determined using a Searle Mark III liquid scintillation counter linked to a Iso-Data microprocessor.
(b) Preparation of Platelets
Blood was collected from anesthesized or unanesthesized dogs into 50 ml plastic centrifuge tubes containing 3.8% sodium citrate as the anticoagulant (1 volume of citrate/9 volumes of blood). The red cells were removed by centrifugation for 15 minutes at 600 rpm (100-125 g) at room temperature. An aliquot of the supernatant platelet rich plasma (PRP) was saved for cell counting and the remainder was acidified to PH 6.5 with 0.15M citric acid. The platelet pellet was obtained after a 10 minute centrifugation at 2000 rpm (1000 g) at room temperature. Washed platelets were prepared by resuspending the platelet pellet once with PBS containing 1 mM EDTA, centrifuging as noted, and then resuspending the platelets in 0.1% BSA-PBS. An aliquot of the washed platelets was counted. Platelets used for binding assays were diluted to 2×10^7 platelets/assay tube (4×10^8 platelets/ml). Platelet counting was done using a Royco Cell-Crit 921.

| Structure (SMILES) | Percent Inhib. of PAF-Induced Bronchoconstriction, mg/Kg i.v. [1] [%] | IC50 [2] [nM] | inhibition in vivo at 50 mg/kg [1] [%] | also measured |
| --- | --- | --- | --- | --- |
| COc1ccc(C(=C/C=C/C(=O)NCCOCc2cccnc2)c2ccc(OC)cc2)cc1 | 48 ± 7 | 25 | – | – |
| CC(CCCc1cccnc1)NC(=O)/C=C/C=C(c1ccccc1)c1ccccc1 (racemic) [[R,S-(E)]-5,5-Diphenyl-N-[1-methyl-4-(3-pyridinyl)butyl]-2,4-pentadienamide] | – | 100 | – | – |
| COc1ccc(C(=C/C=C/C(=O)NC(CCCc2cccnc2)C(C)C)c2ccc(OC)cc2)cc1 (racemic) [[R,S-(E)]-5,5-bis(4-methoxyphenyl)-N-[1-(1-methylethyl)-4-(3-pyridinyl)butyl]-2,4-pentadienamide] | 87 ± 7 | – | 57 ± 19 | – |
| COc1ccc(C(=C/C=C/C(=O)NC(C)CCCc2cccnc2C)c2ccc(OC)cc2)cc1 (racemic) [[R,S-(E)]-5,5-bis(4-methoxyphenyl)-N-[1-methyl-4-(2-methyl-3-pyridinyl)butyl]-2,4-pentadienamide] | 47 ± 10 | 30 | – | – |
| COc1ccc(C(=C/C=C/C(=O)NC(C)CCCc2ccc(C)nc2)c2ccc(OC)cc2)cc1 (racemic) [[R,S-(E)]-5,5-bis(4-methoxyphenyl)-N-[1-methyl-4-(6-methyl-3-pyridinyl)butyl]-2,4-pentadienamide] | – | 700 | – | – |
| CCCC(CCCc1cccnc1)NC(=O)/C=C/C=C(c1ccc(OC)cc1)c1ccc(OC)cc1 (racemic) [[R,S-(E)]-5,5-bis(4-methoxyphenyl)-N-[1-propyl-4-(3-pyridinyl)butyl]-2,4-pentadienamide] | 24 ± 13 | > 1000 | – | – |
| CCc1ccc(CCCC(C)NC(=O)/C=C/C=C(c2ccc(OC)cc2)c2ccc(OC)cc2)cn1 (racemic) [[R,S-(E)]-5,5-bis-(4-methoxyphenyl)-N-[1-methyl-4-(6-ethyl-3-pyridinyl)butyl]-2,4-pentadienamide] | – | 900 | – | – |
| COc1cccc(C(=C/C=C/C(=O)NC(C)CCCc2cccnc2)c2cccc(OC)c2)c1 (racemic) [[R.S-(E)]-5,5-bis(3-methoxyphenyl)-N-[1-methyl-4-(3-pyridinyl)butyl]-2,4-pentadienamide] | – | 20 | – | – |
| C/C(=C\C=C(c1ccccc1)c1ccccc1)C(=O)NCCCCc1cccnc1 [(E)-5,5-Diphenyl-2-methyl-N-[4-(3-pyridinyl)butyl]-2,4-pentadienamide] | – | 100 | – | – |
| CC(C)(CCCc1cccnc1)NC(=O)/C=C/C=C(c1cccc(F)c1)c1cccc(F)c1 [(E)-5,5-bis(3-Fluorophenyl)-N-[1,1-dimethyl-4-(3-pyridinyl)butyl]-2,4-pentadienamide] | – | – | 11 ± 10 | – |
| COc1cccc(C(=C/C=C/C(=O)NC(C)(C)CCCc2cccnc2)c2cccc(OC)c2)c1 [(E)-5,5-bis(3-Methoxyphenyl)-N-[1,1-dimethyl-4-(3-pyridinyl)butyl]-2,4-pentadienamide] | – | – | 22 ± 10 | – |
| COc1cccc(C(=C/C=C/C(=O)NCCCCCCc2cccnc2)c2cccc(OC)c2)c1 [(E)-5,5-bis(3-Methoxyphenyl)-N-[6-(3-pyridinyl)hexyl]-2,4-pentadienamide] | – | 450 | – | – |
| CC(C)(CCCc1cccnc1)NC(=O)/C=C/C=C(c1ccc(F)cc1)c1ccc(F)cc1 [(E)-5,5-bis(4-Fluorophenyl)-N-[1,1-dimethyl-4-(3-pyridinyl)butyl]-2,4-pentadienamide] | – | – | 20 ± 14 | – |
| COc1ccc(C(=C/C=C/C(=O)NC(C)(C)CCCc2cccnc2)c2ccc(OC)cc2)cc1 [(E)-5,5-bis(4-Methoxyphenyl)-N-1,1-dimethyl-4-(3-pyridinyl)butyl]-2,4-pentadienamide] | – | – | 54 ± 9 | – |
| COc1ccc(C(=C/C=C/C(=O)NCCCOc2cccnc2)c2ccc(OC)cc2)cc1 [(E)-5,5-bis(4-methoxyphenyl)-N-[3-[(3-pyridinyl)oxy]propyl]-2,4-pentadienamide] | – | 300 | – | – |
| Cc1ccc(C(=C/C=C/C(=O)NCCCCc2cccnc2)c2ccc(C)cc2)cc1 [(E)-5,5-bis(4-methylphenyl)-N-[4-(3-pyridinyl)butyl]-2,4-pentadienamide] | 95 ± 1 | – | 67 ± 15 | Percent Inhib. of PAF-Induced Bronchoconstriction, 50 mg/Kg p.o. (8 hr) [1]: 11 ± 6% |
| COc1ccc(C(=C/C=C/C(=O)Nc2cccc3cnccc23)c2ccc(OC)cc2)cc1 [(E)-N-(5-isoquinolinyl)-5,5-bis(4-methoxyphenyl)-2,4-pentadienamide] | – | 600 | – | – |
| COc1ccc(C(=C/C=C/C(=O)NCCCc2cccc3ccncc23)c2ccc(OC)cc2)cc1 [(E)-N-[3-(8-isoquinolinyl)propyl]-5,5-bis(4-methoxyphenyl)-2,4-pentadienamide] | – | > 1000 | – | – |
| COc1ccc(C(=C/C=C/C(=O)NCCCCc2cncc3ccccc23)c2ccc(OC)cc2)cc1 [(E)-N-[4-(4-isoquinolinyl)butyl]-5,5-bis(4-methoxyphenyl)-2,4-pentadienamide] | – | > 1000 | – | – |
| O=C(/C=C\C=C(c1ccccc1)c1ccccc1)NCCCCc1cccnc1 [(Z)-5,5-diphenyl-N-[4-(3-pyridinyl)butyl]-2,4-pentadienamide] | – | 400 | – | – |
| CCCCC/C(=C/C=C/C(=O)N[C@H](C)CCCc1cccnc1)c1ccc(OC)cc1 [[R-(2E,4Z)]-5-(4-methoxyphenyl)-N-[1-methyl-4-(3-pyridinyl)butyl]-2,4-decadienamide] | 57 ± 12 | – | – | – |
| COc1ccc(/C(=C\C=C\C(=O)N[C@H](C)CCCc2cccnc2)c2ccccc2)cc1 [[R-(2E,4Z)]-5-(4-methoxyphenyl)-N-[1-methyl-4-(3-pyridinyl)butyl]-5-phenyl-2,4-pentadienamide] | 74 ± 11 | – | 0 | – |
| COc1ccc(/C(=C\C=C\C(=O)N[C@H](C)CCCc2cccnc2)C2CCCCC2)cc1 [[R-(2E,4Z)]-5-cyclohexyl-5-(4-methoxyphenyl)-N-[1-methyl-4-(3-pyridinyl)butyl]-2,4-pentadienamide] | 18 ± 12 | – | – | – |
| CCCCC/C(=C\C=C\C(=O)N[C@H](C)CCCc1cccnc1)c1ccc(OC)cc1 [[R-(E,E)]5-(4-methoxyphenyl)-N-[1-methyl-4-(3-pyridinyl)butyl]-2,4-decadienamide] | 99 ± 1 | – | 100 ± 0.5 | Percent Inhib. of PAF-Induced Bronchoconstriction, 50 mg/Kg p.o. (8 hr) [1]: 71 ± 14% |
| COc1ccc(/C(=C/C=C/C(=O)N[C@H](C)CCCc2cccnc2)c2ccccc2)cc1 [[R-(E,E)]-5-(4-methoxyphenyl)-N-[1-methyl-4-(3-pyridinyl)butyl]-5-phenyl-2,4-pentadienamide] | 89 ± 4 | – | 95 ± 1 | – |
| C[C@@H](CCCc1cccnc1)NC(=O)/C=C/C=C(c1ccc(F)cc1)c1ccc(F)cc1 [[S-(E)]-5,5-bis(4-fluorophenyl)-N-[1-methyl-4-(3-pyridinyl)butyl]-2,4-pentadienamide] | – | – | 44 ± 10 | – |
